Experimental data taken from patent US10858355B2, “Inhibitors of phosphatidylinositol 3-kinase gamma” (AstraZeneca AB, priority 2016, dated 2020).

target: recombinant human PI3Kγ (aa144-1102)-6His (Homo sapiens (Human), UniProt P48736); test: Test A: Enzymatic Activity Assay for Rec Human PI3Kγ (ADP-Glo); format: biochemical; details: 20 μM ATP, 80 μM DiC8-PIP2, 1.2 nM PI3Kγ, 15 min pre-incubation, 60 min reaction
Description: Pharmacological Activity Test A: Enzymatic Activity Assay for Rec Human PI3Kγ
The activity of recombinant human PI3Kγ (aa144-1102)-6His was determined by measuring the ADP level after phosphorylation of DiC8-PIP2 using a commercially available ADP-Glo™ kit from Promega. The assay was carried out in white low volume 384 well plates in a final volume of 14 μl at rt. The assay conditions contained the following: 50 mM Tris buffer pH 7.4, 2.1 mM DTT, 3 mM MgCl2, 0.05% CHAPS, 20 μM ATP, 80 μM DiC8-PIP2 and 1.2 nM PI3Kγ. […] Routinely, inhibitors were pre-incubated with 3 μl of PI3Kγ for 15 min prior to the addition of […] substrate mixture for a further 60 min enzyme reaction. The phosphorylation was stopped with the addition of 3 μl ADP-Glo™ reagent (stop solution) followed by a 40 min incubation. Prior to detection 6 μl of ADP-Glo™ Kinase Detection Reagent was added and the plates were read in a micro plate reader using a Luminescence filter.

Chain of recombinant human PI3Kγ (aa144-1102)-6His (P48736 144-1102): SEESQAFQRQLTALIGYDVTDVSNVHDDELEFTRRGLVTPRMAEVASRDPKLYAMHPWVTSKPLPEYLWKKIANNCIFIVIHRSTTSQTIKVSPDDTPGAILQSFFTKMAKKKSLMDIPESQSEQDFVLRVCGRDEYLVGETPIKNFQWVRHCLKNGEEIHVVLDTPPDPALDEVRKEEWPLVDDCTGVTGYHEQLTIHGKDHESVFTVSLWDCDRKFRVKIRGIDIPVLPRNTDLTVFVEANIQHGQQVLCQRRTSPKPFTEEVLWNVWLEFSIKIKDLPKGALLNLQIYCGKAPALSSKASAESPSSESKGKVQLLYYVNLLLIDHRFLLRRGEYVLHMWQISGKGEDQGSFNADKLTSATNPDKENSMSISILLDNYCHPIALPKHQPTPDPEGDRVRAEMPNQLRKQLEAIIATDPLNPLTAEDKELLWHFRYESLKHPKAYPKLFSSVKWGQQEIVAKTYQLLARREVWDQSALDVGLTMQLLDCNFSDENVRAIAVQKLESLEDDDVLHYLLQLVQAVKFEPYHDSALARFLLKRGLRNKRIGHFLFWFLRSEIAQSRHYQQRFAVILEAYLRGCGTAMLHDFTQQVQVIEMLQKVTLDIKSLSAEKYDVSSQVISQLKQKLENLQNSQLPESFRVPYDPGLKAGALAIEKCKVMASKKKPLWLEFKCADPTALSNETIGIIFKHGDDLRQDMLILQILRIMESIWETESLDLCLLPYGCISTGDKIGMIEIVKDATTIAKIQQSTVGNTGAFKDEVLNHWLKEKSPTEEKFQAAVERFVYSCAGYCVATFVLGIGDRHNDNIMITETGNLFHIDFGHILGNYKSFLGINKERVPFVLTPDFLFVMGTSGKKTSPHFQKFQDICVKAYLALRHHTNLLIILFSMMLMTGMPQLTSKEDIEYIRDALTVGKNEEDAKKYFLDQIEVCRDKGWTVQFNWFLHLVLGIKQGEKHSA

SMILES	PI3Kγ activity, pIC50
CNS(=O)(=O)c1cc(-c2sc(NC(C)=O)nc2C)cc2c1C(=O)N([C@@H](C)C(F)(F)F)C2 [Example 35, N-(4-Methyl-5-{7-(methylsulfamoyl)-1-oxo-2-[(2S)-1,1,1-trifluoropropan-2-yl]-2,3-dihydro-1H-isoindol-5-yl}-1,3-thiazol-2-yl)acetamide]	9.0
CC(=O)Nc1nc(C)c(-c2cc3c(c(S(=O)(=O)Nc4cccc(C#N)c4)c2)C(=O)N([C@@H](C)C2CC2)C3)s1 [Example 36, N-(5-{7-[(3-Cyanophenyl)sulfamoyl]-2-[(1S)-1-cyclopropylethyl]-1-oxo-2,3-dihydro-1H-isoindol-5-yl}-4-methyl-1,3-thiazol-2-yl)acetamide]	9.3
CC(=O)Nc1nc(C)c(-c2cc3c(c(S(=O)(=O)Nc4cccc(C#N)c4)c2)C(=O)N(C(C)C)C3)s1 [Example 37, N-(5-{7-[(3-Cyanophenyl)sulfamoyl]-1-oxo-2-(propan-2-yl)-2,3-dihydro-1H-isoindol-5-yl}-4-methyl-1,3-thiazol-2-yl)acetamide]	9.0

Results, then the compound that gave them:

PI3Kγ activity, pIC50	SMILES
8.8	CNS(=O)(=O)c1cc(-c2sc(NC(C)=O)nc2C)cc2c1C(=O)N([C@@H](C)C(C)(C)C)C2 [Example 33, N-(5-{2-[(2S)-3,3-Dimethylbutan-2-yl]-7-(methylsulfamoyl)-1-oxo-2,3-dihydro-1H-isoindol-5-yl}-4-methyl-1,3-thiazol-2-yl)acetamide]
8.8	CNS(=O)(=O)c1cc(-c2sc(NC(C)=O)nc2C)cc2c1C(=O)N(C(C)(C)C)C2 [Example 34, N-{5-[2-tert-Butyl-7-(methylsulfamoyl)-1-oxo-2,3-dihydro-1H-isoindol-5-yl]-4-methyl-1,3-thiazol-2-yl}acetamide]
